In patent publication US20070203098A1, “Pten Inhibitors” (priority 2004, published 2007):
Where a name gives a salt, the structure may show the parent alone. Read-outs that look alike come from different tables or passages of the source.

Key:
Assay type in all cases: biochemical
PTEN [1] = molecular target: T1, PTEN (Homo sapiens, UniProt P60484); assay: PTEN Inhibition Assay: General Screening
PTEN [2] = molecular target: T1, PTEN; assay: PTEN Inhibition Assay: IC50 Determinations
PTP1B = molecular target: T2, PTP1B (Homo sapiens, UniProt P18031); assay: PTP1B Inhibition Assay: IC50 Determinations
T2 sequence (P18031 1-435): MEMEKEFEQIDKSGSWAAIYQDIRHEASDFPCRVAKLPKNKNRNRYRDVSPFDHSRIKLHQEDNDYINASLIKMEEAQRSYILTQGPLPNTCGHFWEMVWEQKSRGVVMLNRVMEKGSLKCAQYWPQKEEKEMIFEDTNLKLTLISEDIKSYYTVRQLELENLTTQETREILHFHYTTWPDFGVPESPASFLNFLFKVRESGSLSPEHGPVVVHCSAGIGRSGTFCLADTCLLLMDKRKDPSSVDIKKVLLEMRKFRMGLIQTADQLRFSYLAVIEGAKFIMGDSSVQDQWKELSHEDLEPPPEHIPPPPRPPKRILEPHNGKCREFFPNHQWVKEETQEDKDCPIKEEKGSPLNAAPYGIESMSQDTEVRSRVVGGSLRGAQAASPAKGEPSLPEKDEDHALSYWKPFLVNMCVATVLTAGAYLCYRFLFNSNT

[3] = read-out: % Inhibition at 250 uM
[4] = 250 uM, Table 23 polyamides, read-out: % Inhibition @250 uM
[5] = 250 uM, Table 15 diamides, furazan core, read-out: % Inhibition @ 250 uM
[6] = 250 uM, Table 24 known PTP inhibitors, read-out: % Inhibition at 250 uM
[7] = 250 uM, Table 22 imidazoles, read-out: % Inhibition at 250 uM
[8] = read-out: % Inhibition @ 250 uM

T1 sequence (P60484 whole entry, species assumed): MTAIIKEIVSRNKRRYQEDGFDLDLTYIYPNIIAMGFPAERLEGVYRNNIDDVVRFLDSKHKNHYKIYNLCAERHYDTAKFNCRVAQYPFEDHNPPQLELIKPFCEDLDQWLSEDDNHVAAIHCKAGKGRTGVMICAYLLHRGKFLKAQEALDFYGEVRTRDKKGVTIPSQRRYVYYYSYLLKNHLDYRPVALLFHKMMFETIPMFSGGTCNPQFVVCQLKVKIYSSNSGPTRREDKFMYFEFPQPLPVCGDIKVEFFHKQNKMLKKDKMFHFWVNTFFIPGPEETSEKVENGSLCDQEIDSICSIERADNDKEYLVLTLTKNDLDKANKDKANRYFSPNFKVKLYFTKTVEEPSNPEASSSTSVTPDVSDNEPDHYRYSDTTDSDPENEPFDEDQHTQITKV

Structure (SMILES): CC(C)=C[C@@H]1[C@H](C(=O)OCc2coc(Cc3ccccc3)c2)C1(C)C (mixture of isomers) [SF1671-000, 5-Benzyl-3-furylmethyl (1R,S)-cis,trans-chrysanthemate, reference compound]
- inhibition at 250 µM (PTEN [1]; [3]): 9.6%

Structure (SMILES): CC1(C)C(C=C(Cl)Cl)[C@H]1C(=O)O[C@@H](C#N)c1cccc(Oc2ccccc2)c1 (stereo in doubt) [SF1687-000, Cypermethrin, reference compound]
- inhibition at 250 µM (PTEN [1]; [3]): -5.9%

Structure (SMILES): NCCCC(O)(P(=O)([O-])O)P(=O)(O)O.[Na+] [CC1669-100, Alendronate, Sodium, Trihydrate, reference compound]
- % Inhibition @ 250 uM in PTEN Assay (PTEN [1]): minimal activity
- inhibition at 250 µM (PTEN [1]; read-out: % Inhibition @ 250 uM in PTEN Assay): -0.9 to 20%

Structure (SMILES): O=C(CCC(=O)NNC(=O)COc1ccc(Cl)cc1)NNC(=O)COc1ccc(Cl)cc1 [SF1516-000]
- inhibition at 250 µM (PTEN [1]; [4]): 35.3%

Structure (SMILES): CCOC(=O)CNC(=O)C(c1ccc(O)cc1)N(C(=O)c1snc(C(N)=O)c1N)c1ccc2c(c1)OCO2 (stereo not shown) [SF1552-000]
- inhibition at 250 µM (PTEN [1]; [4]): 52.4%

Structure (SMILES): CCOC(=O)CNC(=O)C(c1ccc2ncccc2c1)N(CC1CCCO1)C(=O)c1snc(C(N)=O)c1N (stereo not shown) [SF1566-000]
- inhibition at 250 µM (PTEN [1]; [4]): 70.6%

Structure (SMILES): Nc1nonc1NC(=O)N/N=C/CCC/C=N/NC(=O)Nc1nonc1N [SF1567-000]
- inhibition at 250 µM (PTEN [1]; [4]): 60.2%

Structure (SMILES): Cc1ccc(C)c(OCC(=O)Nc2nonc2NC(=O)COc2cc(C)ccc2C)c1 [SF1609-000]
- inhibition at 250 µM (PTEN [1]; [5]): 58 to 80%
- IC50 (PTEN [2]; Table 29, read-out: PTEN IC50): 80 to 113 µM
- IC50 (PTP1B; Table 29, read-out: PTP1B IC50): 5.8 µM

Structure (SMILES): CC(C)c1ccccc1OCC(=O)Nc1nonc1NC(=O)COc1ccccc1C(C)C [SF1617-000]
- inhibition at 250 µM (PTEN [1]; [5]): 3 to 81%
- IC50 (PTEN [2]; Table 29, read-out: PTEN IC50): 66 to 84 µM
- IC50 (PTP1B; Table 29, read-out: PTP1B IC50): 13.6 µM

Structure (SMILES): O=C(COc1ccccc1)NC1CCCCC1NC(=O)COc1ccccc1 (stereo not shown) [SF1647-000]
- inhibition at 250 µM (PTEN [1]; 250 uM, Table 16, read-out: % Inhibition @ 250 uM): 2.2%

Structure (SMILES): CC1(C)[C@H](C=C(Br)Br)[C@@H]1C(=O)OC(C#N)c1cccc(Oc2ccccc2)c1 (stereo partly shown) [SF1667-000, Deltamethrin, reference compound]
- inhibition at 250 µM (PTEN [1]; [3]): 0.3%

Structure (SMILES): Cc1ccc(C(=O)Nc2ccc(S(=O)(=O)O)c3cc(S(=O)(=O)O)cc(S(=O)(=O)O)c23)cc1NC(=O)c1cccc(NC(=O)Nc2cccc(C(=O)Nc3cc(C(=O)Nc4ccc(S(=O)(=O)O)c5cc(S(=O)(=O)O)cc(S(=O)(=O)O)c45)ccc3C)c2)c1 [SF1672-100, Suramin, Sodium Salt, reference compound]
- inhibition at 250 µM (PTEN [1]; [6]): -9.9%

Structure (SMILES): CC12CCC(C)(O1)C(C(=O)O)C2C(=O)O (stereo not shown) [SF1676-000, 1,4-Dimethylendothall, reference compound]
- inhibition at 250 µM (PTEN [1]; [3]): 3.3%

Structure (SMILES): CC1(C(=O)O)C2CCC(O2)C1(C)C(=O)O (stereo not shown) [SF1679-000, Cantharidic Acid, reference compound]
- inhibition at 250 µM (PTEN [1]; [3]): 2.7%

Structure (SMILES): CCN(N=O)c1ccc(O)c(O)c1 [SF1681-000, 3,4-Dephostatin, Ethyl-, reference compound]
- inhibition at 250 µM (PTEN [1]; [3]): 82.4%
- IC50 (PTEN [2]): 50 µM
- IC50 (PTP1B): 50 µM

Structure (SMILES): CC(C)C(C(=O)OC(C#N)c1cccc(Oc2ccccc2)c1)c1ccc(Cl)cc1 (stereo not shown) [SF1683-000, Fenvalerate, reference compound]
- inhibition at 250 µM (PTEN [1]; [3]): -25.5%

Structure (SMILES): O=P(O)(O)Oc1cccc2ccccc12 [SF1684-100, α-Naphthyl Acid Phosphate, Monosodium Salt, reference compound]
- inhibition at 250 µM (PTEN [1]; [3]): 11.2%

Structure (SMILES): O=P(O)(O)OC(CO)CO [SF1685-100, β-Glycerophosphate, Disodium Salt, Pentahydrate, reference compound]
- inhibition at 250 µM (PTEN [1]; [6]): 10.9%

Structure (SMILES): O=C(O)[C@@H]1[C@H](C(=O)O)[C@H]2CC[C@@H]1O2 [SF1686-000, Endothall, reference compound]
- inhibition at 250 µM (PTEN [1]; [3]): -1.2%

Structure (SMILES): Cc1cccc(-n2cnc(C(=O)NNC(=O)c3ccc(C(C)(C)C)cc3)c2)n1 [SF1708-000]
- inhibition at 250 µM (PTEN [1]; [7]): 57 to 95%
- IC50 (PTEN [2]; Table 29, read-out: PTEN IC50): 50 µM
- IC50 (PTP1B; Table 29, read-out: PTP1B IC50): 60 µM

Structure (SMILES): O=C1C(=O)c2ccccc2-c2ccccc21 [SF1721-000]
- inhibition at 250 µM (PTEN [1]; [8]): 99.7%
- IC50 (PTEN [2]): 3.4 µM
- IC50 (PTP1B): 17 µM

Structure (SMILES): O=C1C(=O)c2cc([N+](=O)[O-])ccc2-c2ccccc21 [SF1722-000]
- inhibition at 250 µM (PTEN [1]; [8]): 99.3%
- IC50 (PTEN [2]): 4 µM

Structure (SMILES): CC(C)(C)c1ccc(C(=O)NNC(=O)c2ccc(C(C)(C)C)cc2)cc1 [SF1733-000]
- inhibition at 250 µM (PTEN [1]; [7]): 15.9%

Structure (SMILES): Oc1cc2ccccc2c2ccccc12 [SF1734-000]
- IC50 (PTEN [2]): 33 µM

Structure (SMILES): O=C1CC(S(=O)(=O)O)c2ccccc2C1=O (stereo not shown) [SF1735-000]
- IC50 (PTEN [2]; Table 28, read-out: PTEN IC50): 20 µM
- IC50 (PTP1B; Table 29, read-out: PTP1B IC50): > 250 µM

Structure (SMILES): O=C1C=Cc2ccccc2C1=O [SF1736-000]
- IC50 (PTEN [2]): 21 µM

Structure (SMILES): O=C1C=CC(=O)c2ccccc21 [SF1737-000]
- IC50 (PTEN [2]): 43 µM
